Peptide text beside a SMILES is read from it. * marks the point of attachment. X1 = C=CC(=O)NCCCCC(NC(=O)OCc1ccccc1)C(=O)N1CCN(C(=O)C(CCC(=O)*)NC(=O)c2cccc3ccccc23)CC1
Experiments:
TG3a = molecular target: T1, TG3a (Homo sapiens, UniProt Q08188); assay: TGase isozyme selectivity, TG3a with A101 substrate; type: biochemical; conditions: [I]/α identical to that of the TG2 assay
T1 construct: purchased Zedira GmbH (Darmstadt, Germany)
T1 sequence (Q08188 2-467 limits assumed): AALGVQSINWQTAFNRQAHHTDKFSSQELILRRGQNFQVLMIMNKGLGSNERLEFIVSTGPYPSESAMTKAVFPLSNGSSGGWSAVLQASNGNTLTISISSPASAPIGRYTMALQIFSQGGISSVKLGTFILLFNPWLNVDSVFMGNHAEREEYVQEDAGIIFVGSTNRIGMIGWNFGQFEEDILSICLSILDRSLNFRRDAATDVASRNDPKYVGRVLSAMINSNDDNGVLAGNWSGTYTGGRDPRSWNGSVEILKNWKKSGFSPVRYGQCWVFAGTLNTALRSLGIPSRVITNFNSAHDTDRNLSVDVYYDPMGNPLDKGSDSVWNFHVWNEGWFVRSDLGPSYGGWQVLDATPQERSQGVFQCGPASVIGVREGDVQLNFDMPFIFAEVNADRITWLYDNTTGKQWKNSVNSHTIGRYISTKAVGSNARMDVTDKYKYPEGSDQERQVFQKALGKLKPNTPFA
T1 sequence (Q08188 468-693 partner limits assumed): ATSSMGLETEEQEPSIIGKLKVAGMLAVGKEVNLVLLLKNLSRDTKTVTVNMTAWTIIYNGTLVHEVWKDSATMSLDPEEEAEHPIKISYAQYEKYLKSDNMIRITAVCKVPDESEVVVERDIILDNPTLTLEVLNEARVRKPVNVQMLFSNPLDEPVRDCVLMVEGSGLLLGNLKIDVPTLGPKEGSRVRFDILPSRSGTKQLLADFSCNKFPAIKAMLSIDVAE
Source text: (§1) In the development of probes for TGases, isozyme selectivity is always a significant challenge. Since the catalytic machinery of the active sites of all TGases features a conserved Gly-Gln-Cys-Trp-Val sequence, selectivity for one isozyme over the others requires exploitation of slight differences in the protein substrate binding sites. In order to assess the isozyme selectivity of our cell-impermeable inhibitors, TG2 and four other therapeutically relevant TGases (Factor XIII, TG1, TG3, and TG6) were exposed to a concentration of inhibitor representing the same apparent competition with respect to the assay substrate (AL5 [38] or A101 [42, 43]). In other words, both the substrate and inhibitor concentrations were varied so that the [I]/α values were identical. […] This provides confidence that in further applications, these cell-impermeable inhibitors will selectively target TG2 over other transglutaminases.
(§2) To monitor the activity of TG3a and TG6, a FRET-quenched substrate A101 (Zedira Gmbh) was used. […] The isopeptidase activity of the respective TGase was then monitored at Ex/Em = 313/418 nm with a BioTek Synergy 4 plate reader at 25 °C. […]

FXIIIa = molecular target: T2, FXIIIa (Homo sapiens, UniProt P00488); assay: TGase isozyme selectivity, FXIIIa with A101 substrate; type: biochemical; conditions: [I]/α identical to that of the TG2 assay
T2 construct: purchased Zedira GmbH (Darmstadt, Germany)
T2 sequence (P00488 39-732 limits assumed): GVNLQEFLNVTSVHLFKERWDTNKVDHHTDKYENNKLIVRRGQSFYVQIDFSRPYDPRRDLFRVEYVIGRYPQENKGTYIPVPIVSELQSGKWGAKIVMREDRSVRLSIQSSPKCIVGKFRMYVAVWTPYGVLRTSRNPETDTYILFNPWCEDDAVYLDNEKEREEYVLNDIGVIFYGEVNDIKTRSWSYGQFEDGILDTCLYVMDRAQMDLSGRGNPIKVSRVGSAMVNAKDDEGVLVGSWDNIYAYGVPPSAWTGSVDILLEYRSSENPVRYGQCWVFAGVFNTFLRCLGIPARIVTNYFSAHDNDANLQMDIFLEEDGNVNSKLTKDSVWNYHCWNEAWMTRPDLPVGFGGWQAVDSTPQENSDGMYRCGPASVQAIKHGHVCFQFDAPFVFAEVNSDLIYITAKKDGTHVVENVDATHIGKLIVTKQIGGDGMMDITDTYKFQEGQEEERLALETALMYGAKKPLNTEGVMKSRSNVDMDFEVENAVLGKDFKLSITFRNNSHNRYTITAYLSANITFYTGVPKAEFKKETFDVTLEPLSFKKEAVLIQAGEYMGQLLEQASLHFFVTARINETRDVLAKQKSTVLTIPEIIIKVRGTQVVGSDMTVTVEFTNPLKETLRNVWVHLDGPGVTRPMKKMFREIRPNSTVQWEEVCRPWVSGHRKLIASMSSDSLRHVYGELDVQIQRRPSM
Source text: as §1, §2

| Structure (SMILES) | inhibition of TG3 (TG3a) | inhibition of Factor XIII (FXIIIa) |
| --- | --- | --- |
| C=CC(=O)NCCCCC(NC(=O)OCc1ccccc1)C(=O)N1CCN(C(=O)C(CCC(=O)NCC(=O)NCC(=O)NCC(=O)NC(CC(=O)O)C(=O)NC(CC(=O)O)C(=O)NC(CC(=O)O)C(=O)O)NC(=O)c2cccc3ccccc23)CC1 (stereo not shown) [Compound 18] (X1-GGGDDD-OH; configuration not given here) | no detectable inhibition | no detectable inhibition |
| C=CC(=O)NCCCCC(NC(=O)OCc1ccccc1)C(=O)N1CCN(C(=O)C(CCC(=O)NCCCCCC(=O)NC(CC(=O)O)C(=O)NC(CC(=O)O)C(=O)NC(CC(=O)O)C(=O)O)NC(=O)c2cccc3ccccc23)CC1 (stereo not shown) [Compound 17] | no detectable inhibition | no detectable inhibition |

— article PMC10454375, “Cell-Impermeable Inhibitors Confirm That Intracellular Human Transglutaminase 2 Is Responsible for the Transglutaminase-Associated Cancer Phenotype” (International Journal of Molecular Sciences, 2023)
